Laboratory results from patent US11175204B1, “7-hydroxycoumarin-based cell-tracking reagents” (LIFE TECHNOLOGIES CORPORATION, priority 2009, dated 2021).

Tested on: Human peripheral blood mononuclear cells
Experiment: Cell proliferation tracking by dye dilution, flow cytometry (Biological Application Example 1)
Assay type: cell-based
Details: 1 μM staining; for loss of fluorescence over 24 hours: initial 24 hours after staining; for fluorescence histogram from stimulated cells / fluorescence intensity and coefficient of variation from unstimulated cells: six days after staining
Description: Human peripheral blood mononuclear cells were isolated from whole blood using a Ficoll density gradient, then washed and resuspended in phosphate buffered saline (DPBS) at a concentration of 10^6/mL. The general procedure used is as follows: • 1. Dilute 8 mL of whole blood into 8 mL of 1×PBS and mix well. • 2. Add 6 mL Ficoll-Paque Plus to a 15-mL centrifuge tube, then layer 8 mL diluted whole blood on top. • 3. Centrifuge 30 min at 400 g, then carefully remove the lymphocyte layer. • 4. Resuspend cells in 25 mL DPBS buffer in a 50-mL conical tube. • 5. Spin tube for 5 min at 200 g, pour off supernatant and resuspend in 25 mL DPBS. • 6. Repeat wash step and resuspend in 300 μL of Isolation Buffer. • 7. Count cells on cellometer; adjust cell concentration to 10^6 cells/mL
Compound 2, Compound 6, Compound 7, and Carboxyfluorescein Diacetate Succinimidyl ester (CFSE) were each dissolved in anhydrous dimethylsulfoxide to a concentration of 1 mM. Aliquots, 4-mL, of cells were then stained with 4 μL of Compound 2, Compound 6, Compound 7, or CFSE for final staining concentrations of 1 μM. Cells were incubated with agitation at room temperature for 20 minutes. Then 2 mL of heat-inactivated Fetal Bovine Serum (FBS) were added, followed by 5 more minutes of incubation. Cells were washed twice with DPBS+10% FBS and resuspended in 4 mL of OpTmizer T-Cell Expansion Buffer (GIBCO) containing 2 mM L-glutamine, and 100,000 units penicillin and 100 mg streptomycin per liter. Aliquots (1-mL) of cells stained with Compound 2, Compound 6, Compound 7, or CFSE, and a 1-ml aliquot of unstained cells were then dispensed into a 24-well polystyrene plate and incubated at 37° C. and 5% CO2 for 24 hours. One of the following four stimulus conditions were then applied individually to the cells: i) 200 ng anti-CD3 (2 μL), incubated on ice for 30 min, then transferred to culture plate and add 100 ng iL-2 per mL of culture media, ii) 5 μg/mL Concanavalin A (5 μL of a 1 mg/mL solution), iii) 75 μL CD3/CD28 T cell expander beads, or iv) no stimulus. The cells were then incubated for 72 additional hours at 37° C. and 5% CO2. Aliquots (500-μL) of cells from each treatment were analyzed immediately following staining, and at 24 hours and six days after staining.
Aliquots (500 μL) of cells were washed and resuspended in PBS, stained with mouse anti-human CD3 or CD8 R-phycoerythrin primary antibody conjugates for 15 minutes, then washed and stained with SYTOX® Red Dead Cell Stain for 5 minutes. Cells were then run through the Becton Dickinson (BD) LSRII Flow Cytometer. Fluorescence was collected using three lasers: the 405 nm excitation laser with 450/50 bandpass emission filter, the 488 nm excitation laser with 585/42 bandpass emission filter, and the 633 nm excitation laser with 660/20 bandpass emission filter. A gating strategy was employed to limit analysis to only the cells of interest. Cells were gated first on SYTOX® Red Dead Cell Stain negative (live) cells, then on R-phycoerythrin positive cells (CD3+ or CD8+ positive). […] CountBright™ Absolute Counting Beads were evaluated in each fluorescence histogram prior to each run to account for day-to-day instrument variations.

CC(=O)Oc1cc2oc(=O)c(C(=O)ON3C(=O)CCC3=O)cc2cc1Cl [Compound 2]
loss of fluorescence over 24 hours: very little loss of fluorescence | fluorescence histogram from stimulated cells: distinct peaks corresponding to each generation of cells | fluorescence intensity and coefficient of variation from unstimulated cells: little change from initial staining

CC(=O)Oc1cc2oc(=O)c(C(=O)N3CCC(C(=O)ON4C(=O)CCC4=O)CC3)cc2cc1Cl [Compound 6]
loss of fluorescence over 24 hours: very little loss of fluorescence | fluorescence histogram from stimulated cells: distinct peaks corresponding to each generation of cells | fluorescence intensity and coefficient of variation from unstimulated cells: little change from initial staining

CC(=O)OCOc1cc2oc(=O)c(C(=O)N3CCC(C(=O)ON4C(=O)CCC4=O)CC3)cc2cc1Cl [Compound 7]
loss of fluorescence over 24 hours: very little loss of fluorescence | fluorescence histogram from stimulated cells: distinct peaks corresponding to each generation of cells | fluorescence intensity and coefficient of variation from unstimulated cells: little change from initial staining

Carboxyfluorescein Diacetate Succinimidyl ester [CFSE, reference compound]
loss of fluorescence over 24 hours: moderate fluorescence loss | fluorescence histogram from stimulated cells: distinct peaks corresponding to each generation of cells | fluorescence intensity and coefficient of variation from unstimulated cells: little change from initial staining
